Measured values from patent publication US20250163038A1, “CBL-B MODULATORS AND USES THEREOF” (Nimbus Clio, Inc., priority 2021, published 2025).
pEC50, pIC50: −log10 of the molar value. Where a name gives a salt, the structure may show the parent alone.

Assays:
[1] = molecular target: T1, Recombinant human c-Cbl (aa 47-435) (Homo sapiens, UniProt P22681); assay: c-Cbl Biochemical Assay (TR-FRET); details: hc-Cbl Biochemical Assay (TR-FRET); read-out: TR-FRET hcCbl IC50
T1 sequence (P22681 47-435): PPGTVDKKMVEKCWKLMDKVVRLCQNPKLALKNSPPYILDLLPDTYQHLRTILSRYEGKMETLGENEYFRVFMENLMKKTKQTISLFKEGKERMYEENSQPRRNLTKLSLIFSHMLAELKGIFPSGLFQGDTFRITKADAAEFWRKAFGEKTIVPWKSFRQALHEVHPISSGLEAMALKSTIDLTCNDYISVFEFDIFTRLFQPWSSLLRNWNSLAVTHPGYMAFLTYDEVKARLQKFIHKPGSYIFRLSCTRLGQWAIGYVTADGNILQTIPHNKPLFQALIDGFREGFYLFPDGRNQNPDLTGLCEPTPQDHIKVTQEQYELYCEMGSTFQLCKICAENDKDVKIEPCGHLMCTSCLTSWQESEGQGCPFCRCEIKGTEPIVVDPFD

[2] = molecular target: Recombinant human Cbl-b (aa 36-427) (Homo sapiens, UniProt Q13191); assay: Cbl-b Biochemical Assay (TR-FRET); details: read-out: TR-FRET hCbl-b IC50
Chain of Recombinant human Cbl-b (aa 36-427) (Q13191 36-427): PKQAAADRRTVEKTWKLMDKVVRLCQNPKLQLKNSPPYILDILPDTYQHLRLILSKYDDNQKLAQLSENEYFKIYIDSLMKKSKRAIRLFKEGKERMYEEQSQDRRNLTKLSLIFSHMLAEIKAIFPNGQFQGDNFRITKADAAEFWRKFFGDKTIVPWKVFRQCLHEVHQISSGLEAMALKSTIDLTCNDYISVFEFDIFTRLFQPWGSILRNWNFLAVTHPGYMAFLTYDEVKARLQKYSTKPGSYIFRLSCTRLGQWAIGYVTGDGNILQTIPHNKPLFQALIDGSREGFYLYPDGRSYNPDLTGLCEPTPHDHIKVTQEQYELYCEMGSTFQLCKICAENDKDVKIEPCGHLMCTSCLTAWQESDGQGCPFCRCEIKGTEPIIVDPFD

[3] = tested on: Jurkat (clone E6-1) cells with NFAT luciferase reporter; assay: Jurkat reporter assay (NFAT Luciferase); assay type: cell-based; details: Homo sapiens; Jurkat NFAT luciferase reporter cells, anti-CD3 stimulation, 6 hr; read-out: Jurkat NFAT EC50

| SMILES | pIC50 [1] | pIC50 [2] | pEC50 [3] |
| --- | --- | --- | --- |
| Cn1cnnc1-c1cc(F)ccc1-c1cccc(-c2nc3cc(CNCC4CCCC4)cc(C(F)(F)F)c3o2)c1 [DV-2, 1-Cyclopentyl-N-((2-(4′-fluoro-2′-(4-methyl-4H-1,2,4-triazol-3-yl)-[1,1′-biphenyl]-3-yl)-7-(trifluoromethyl)benzo[d]oxazol-5-yl)methyl)methanamine] | > 6.70 | > 6.70 | > 6.70 |
| COc1cc(CO)cc2nc(-c3cccc(-c4ccc(F)cc4-c4nncn4C)c3)oc12 [DW-3, (2-(4′-Fluoro-2′-(4-methyl-4H-1,2,4-triazol-3-yl)-[1,1′-biphenyl]-3-yl)-7-methoxybenzo[d]oxazol-5-yl)methanol] | 5.00 to 6.00 | 5.00 to 6.00 | 4.30 to 5.00 |
| COc1cc(CN[C@@H]2CCC[C@@H]2O)cc2nc(-c3cccc(-c4ccc(F)cc4-c4nncn4C)c3)oc12 [DX-2, (1S,2R)-2-(((2-(4′-Fluoro-2′-(4-methyl-4H-1,2,4-triazol-3-yl)-[1,1′-biphenyl]-3-yl)-7-methoxybenzo[d]oxazol-5-yl)methyl)amino)cyclopentan-1-ol] | > 6.70 | > 6.70 | > 6.70 |
| Cn1cnnc1-c1cc(F)ccc1-c1cccc(-c2nc3cc(CNCC4(C#N)CCOCC4)cc(C(F)(F)F)c3o2)c1 [DY-1, 4-((((2-(4′-Fluoro-2′-(4-methyl-4H-1,2,4-triazol-3-yl)-[1,1′-biphenyl]-3-yl)-7-(trifluoromethyl)benzo[d]oxazol-5-yl)methyl)amino)methyl)tetrahydro-2H-pyran-4-carbonitrile] | 6.00 to 6.70 | > 6.70 | 6.00 to 6.70 |
| COCCNCc1ccc2oc(-c3cccc(-c4ccc(F)cc4-c4nncn4C)c3)nc2c1 [DZ-1, N-((2-(4′-Fluoro-2′-(4-methyl-4H-1,2,4-triazol-3-yl)-[1,1′-biphenyl]-3-yl)benzo[d]oxazol-5-yl)methyl)-2-methoxyethan-1-amine] | 6.00 to 6.70 | 6.00 to 6.70 | 5.00 to 6.00 |
| C[C@H](N[C@@H]1CCC[C@@H]1O)c1cc(C(F)(F)F)c2oc(-c3cccc(-c4ccc(F)cc4-c4nncn4C)c3)nc2c1 [EA-1, (1S,2R)-2-(((S)-1-(2-(4′-Fluoro-2′-(4-methyl-4H-1,2,4-triazol-3-yl)-[1,1′-biphenyl]-3-yl)-7-(trifluoromethyl)benzo[d]oxazol-5-yl)ethyl)amino)cyclopentan-1-ol] | > 6.70 | > 6.70 | > 6.70 |
| C[C@@H](N[C@@H]1CCC[C@@H]1O)c1cc(C(F)(F)F)c2oc(-c3cccc(-c4ccc(F)cc4-c4nncn4C)c3)nc2c1 [EA-2, (1S,2R)-2-(((R)-1-(2-(4′-Fluoro-2′-(4-methyl-4H-1,2,4-triazol-3-yl)-[1,1′-biphenyl]-3-yl)-7-(trifluoromethyl)benzo[d]oxazol-5-yl)ethyl)amino)cyclopentan-1-ol] | > 6.70 | > 6.70 | > 6.70 |
| Cn1cnnc1-c1cc(F)ccc1-c1cccc(-c2nc3cc(CN)cc(C(F)(F)F)c3o2)c1 [EB-1, (2-(4′-Fluoro-2′-(4-methyl-4H-1,2,4-triazol-3-yl)-[1,1′-biphenyl]-3-yl)-7-(trifluoromethyl)benzo[d]oxazol-5-yl)methanamine] | 6.00 to 6.70 | > 6.70 | 5.00 to 6.00 |
| Cn1cnnc1-c1cc(F)ccc1-c1cccc(-c2nc3cc(CNS(C)(=O)=O)cc(C(F)(F)F)c3o2)c1 [EC-1, N-((2-(4′-Fluoro-2′-(4-methyl-4H-1,2,4-triazol-3-yl)-[1,1′-biphenyl]-3-yl)-7-(trifluoromethyl)benzo[d]oxazol-5-yl)methyl)methanesulfonamide] | 6.00 to 6.70 | > 6.70 | 5.00 to 6.00 |
| Cn1cnnc1-c1cc(F)ccc1-c1cccc(-c2nc3cc(CN[C@@H]4CCC[C@@H]4O)cc(F)c3o2)c1 [ED-7, (1S,2R)-2-(((7-Fluoro-2-(4′-fluoro-2′-(4-methyl-4H-1,2,4-triazol-3-yl)-[1,1′-biphenyl]-3-yl)benzo[d]oxazol-5-yl)methyl)amino)cyclopentan-1-ol] | > 6.70 | > 6.70 | > 6.70 |
| COCCCNCc1cc(C(F)(F)F)c2oc(-c3cccc(-c4ccc(F)cc4-c4nncn4C)c3)nc2c1 [EE-2, N-((2-(4′-Fluoro-2′-(4-methyl-4H-1,2,4-triazol-3-yl)-[1,1′-biphenyl]-3-yl)-7-(trifluoromethyl)benzo[d]oxazol-5-yl)methyl)-3-methoxypropan-1-amine] | > 6.70 | > 6.70 | > 6.70 |
| CC(NCC1(O)CCC1)c1cc(C(F)(F)F)c2oc(-c3cccc(-c4ccc(F)cc4-c4nncn4C)c3)nc2c1 (stereo not drawn) [EF-1, 1-(((1-(2-(4′-Fluoro-2′-(4-methyl-4H-1,2,4-triazol-3-yl)-[1,1′-biphenyl]-3-yl)-7-(trifluoromethyl)benzo[d]oxazol-5-yl)ethyl)amino)methyl)cyclobutan-1-ol, formate] | > 6.70 | > 6.70 | > 6.70 |
| Cn1cnnc1-c1cc(F)ccc1-c1cccc(-c2nc3cc(CN4CO[C@H]5CCC[C@H]54)cc(C(F)(F)F)c3o2)c1 [EH-1, 2-(4′-Fluoro-2′-(4-methyl-4H-1,2,4-triazol-3-yl)-[1,1′-biphenyl]-3-yl)-5-(((3aR,6aS)-tetrahydro-2H-cyclopenta[d]oxazol-3(3aH)-yl)methyl)-7-(trifluoromethyl)benzo[d]oxazole] | > 6.70 | > 6.70 | > 6.70 |
| CN(C)C(=O)CNCc1cc(C(F)(F)F)c2oc(-c3cccc(-c4ccc(F)cc4-c4nncn4C)c3)nc2c1 [EI-4, 2-(((2-(4′-Fluoro-2′-(4-methyl-4H-1,2,4-triazol-3-yl)-[1,1′-biphenyl]-3-yl)-7-(trifluoromethyl)benzo[d]oxazol-5-yl)methyl)amino)-N,N-dimethylacetamide] | 6.00 to 6.70 | > 6.70 | 6.00 to 6.70 |
| COC[C@H](C)NCc1cc(C(F)(F)F)c2oc(-c3cccc(-c4ccc(F)cc4-c4nncn4C)c3)nc2c1 [EJ-2, (S)—N-((2-(4′-Fluoro-2′-(4-methyl-4H-1,2,4-triazol-3-yl)-[1,1′-biphenyl]-3-yl)-7-(trifluoromethyl)benzo[d]oxazol-5-yl)methyl)-1-methoxypropan-2-amine] | > 6.70 | > 6.70 | > 6.70 |
| Cn1cnnc1-c1cc(F)ccc1-c1cccc(-c2nc3ccc(CN[C@@H]4CCC[C@@H]4O)cc3s2)c1 [EK-5, (1S,2R)-2-(((2-(4′-Fluoro-2′-(4-methyl-4H-1,2,4-triazol-3-yl)-[1,1′-biphenyl]-3-yl)benzo[d]thiazol-6-yl)methyl)amino)cyclopentan-1-ol] | 5.00 to 6.00 | 5.00 to 6.00 | 5.00 to 6.00 |
| COCCNCc1cc(OC)c2oc(-c3cccc(-c4ccc(F)cc4-c4nncn4C)c3)nc2c1 [EL-1, N-((2-(4′-Fluoro-2′-(4-methyl-4H-1,2,4-triazol-3-yl)-[1,1′-biphenyl]-3-yl)-7-methoxybenzo[d]oxazol-5-yl)methyl)-2-methoxyethan-1-amine] | > 6.70 | > 6.70 | 6.00 to 6.70 |
| Cn1cnnc1-c1cc(F)ccc1-c1cccc(-c2nc3cc(CNCC4CCC4)cc(C(F)(F)F)c3o2)c1 [EM-2, 1-Cyclobutyl-N-((2-(4′-fluoro-2′-(4-methyl-4H-1,2,4-triazol-3-yl)-[1,1′-biphenyl]-3-yl)-7-(trifluoromethyl)benzo[d]oxazol-5-yl)methyl)methanamine] | > 6.70 | > 6.70 | > 6.70 |
| COC[C@@H](C)NCc1cc(C(F)(F)F)c2oc(-c3cccc(-c4ccc(F)cc4-c4nncn4C)c3)nc2c1 [EN-2, (R)—N-((2-(4′-Fluoro-2′-(4-methyl-4H-1,2,4-triazol-3-yl)-[1,1′-biphenyl]-3-yl)-7-(trifluoromethyl)benzo[d]oxazol-5-yl)methyl)-1-methoxypropan-2-amine] | 6.00 to 6.70 | > 6.70 | 6.00 to 6.70 |
| COCC(C)(C)NCc1cc(C(F)(F)F)c2oc(-c3cccc(-c4ccc(F)cc4-c4nncn4C)c3)nc2c1 [EO-2, N-((2-(4′-Fluoro-2′-(4-methyl-4H-1,2,4-triazol-3-yl)-[1,1′-biphenyl]-3-yl)-7-(trifluoromethyl)benzo[d]oxazol-5-yl)methyl)-1-methoxy-2-methylpropan-2-amine] | 6.00 to 6.70 | > 6.70 | 5.00 to 6.00 |
| CC(C)NCc1cc(C(F)(F)F)c2oc(-c3cccc(-c4ccc(F)cc4-c4nncn4C)c3)nc2c1 [EP-2, N-((2-(4′-Fluoro-2′-(4-methyl-4H-1,2,4-triazol-3-yl)-[1,1′-biphenyl]-3-yl)-7-(trifluoromethyl)benzo[d]oxazol-5-yl)methyl)propan-2-amine] | 6.00 to 6.70 | > 6.70 | 6.00 to 6.70 |
| Cn1cnnc1-c1cc(F)ccc1-c1cccc(-c2nc3cc(CO)cc(Br)c3o2)c1 [EQ-4, (7-Bromo-2-(4′-fluoro-2′-(4-methyl-4H-1,2,4-triazol-3-yl)-[1,1′-biphenyl]-3-yl)benzo[d]oxazol-5-yl)methanol] | 6.00 to 6.70 | 6.00 to 6.70 | 5.00 to 6.00 |
| Cn1cnnc1-c1cc(F)ccc1-c1cccc(-c2nc3cc(CN[C@@H]4CCC[C@@H]4O)cc(Br)c3o2)c1 [ER-2, (1S,2R)-2-(((7-Bromo-2-(4′-fluoro-2′-(4-methyl-4H-1,2,4-triazol-3-yl)-[1,1′-biphenyl]-3-yl)benzo[d]oxazol-5-yl)methyl)amino)cyclopentan-1-ol] | > 6.70 | > 6.70 | > 6.70 |
